# Measured values taken from patent US20260138961A1, “MODULATORS OF MITOCHONDRIAL DNA REPLICATION” (Pretzel Therapeutics, Inc., priority 2022, published 2026).
# Target: T1, POLγA:A467T (Homo sapiens, UniProt P54098, A467T)
# T1 sequence (P54098 1-1239 A467T): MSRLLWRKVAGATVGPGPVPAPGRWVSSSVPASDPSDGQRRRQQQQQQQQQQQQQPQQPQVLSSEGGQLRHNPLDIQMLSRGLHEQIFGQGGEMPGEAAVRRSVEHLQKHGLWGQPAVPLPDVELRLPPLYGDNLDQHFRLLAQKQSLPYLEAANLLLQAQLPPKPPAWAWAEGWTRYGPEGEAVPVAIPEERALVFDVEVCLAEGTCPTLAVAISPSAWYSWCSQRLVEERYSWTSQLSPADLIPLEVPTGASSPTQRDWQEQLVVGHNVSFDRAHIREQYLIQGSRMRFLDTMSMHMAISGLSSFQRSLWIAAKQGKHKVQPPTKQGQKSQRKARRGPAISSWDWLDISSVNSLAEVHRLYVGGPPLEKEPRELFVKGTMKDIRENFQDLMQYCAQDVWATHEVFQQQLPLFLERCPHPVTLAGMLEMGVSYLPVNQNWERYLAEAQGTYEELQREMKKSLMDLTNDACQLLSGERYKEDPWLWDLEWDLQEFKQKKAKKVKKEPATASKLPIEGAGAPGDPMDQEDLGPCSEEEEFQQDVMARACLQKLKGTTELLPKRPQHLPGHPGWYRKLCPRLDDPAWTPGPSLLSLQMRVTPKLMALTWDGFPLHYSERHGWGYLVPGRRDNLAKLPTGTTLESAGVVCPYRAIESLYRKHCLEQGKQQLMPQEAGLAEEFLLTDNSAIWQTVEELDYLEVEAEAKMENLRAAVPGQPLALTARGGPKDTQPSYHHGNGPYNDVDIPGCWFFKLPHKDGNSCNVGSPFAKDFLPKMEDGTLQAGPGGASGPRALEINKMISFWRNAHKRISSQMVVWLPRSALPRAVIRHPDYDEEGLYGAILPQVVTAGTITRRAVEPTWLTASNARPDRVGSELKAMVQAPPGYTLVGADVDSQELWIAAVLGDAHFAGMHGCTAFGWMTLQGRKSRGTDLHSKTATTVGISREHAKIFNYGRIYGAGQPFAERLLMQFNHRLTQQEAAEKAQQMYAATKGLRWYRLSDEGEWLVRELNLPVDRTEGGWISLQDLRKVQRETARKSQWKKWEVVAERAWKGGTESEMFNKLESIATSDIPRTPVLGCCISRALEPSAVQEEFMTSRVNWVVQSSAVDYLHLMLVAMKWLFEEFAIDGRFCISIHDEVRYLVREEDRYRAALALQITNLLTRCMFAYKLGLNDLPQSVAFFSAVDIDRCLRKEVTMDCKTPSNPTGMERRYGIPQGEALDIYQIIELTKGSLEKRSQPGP
# T1 sequence (Q9UHN1 1-485 partner): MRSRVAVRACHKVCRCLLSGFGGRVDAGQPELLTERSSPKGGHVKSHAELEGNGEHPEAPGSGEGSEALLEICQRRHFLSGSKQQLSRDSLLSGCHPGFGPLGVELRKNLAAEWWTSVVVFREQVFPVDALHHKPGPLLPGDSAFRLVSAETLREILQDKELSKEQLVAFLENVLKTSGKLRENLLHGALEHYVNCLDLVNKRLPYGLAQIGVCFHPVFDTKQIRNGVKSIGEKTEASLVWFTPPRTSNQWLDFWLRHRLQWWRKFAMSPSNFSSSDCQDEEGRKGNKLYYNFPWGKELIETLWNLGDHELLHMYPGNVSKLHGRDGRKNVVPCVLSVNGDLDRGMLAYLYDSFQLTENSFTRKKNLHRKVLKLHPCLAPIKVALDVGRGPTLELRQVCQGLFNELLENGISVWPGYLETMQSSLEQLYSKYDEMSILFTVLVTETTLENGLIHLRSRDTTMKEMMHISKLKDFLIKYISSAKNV
# Experiment: DNA polymerization assay, POLγA:A467T mutant
# Format: biochemical
# Details: stimulation of polymerase activity, primed M13mp18 ssDNA, 37° C. 2 hours; read-out: A467T AC50
row,AC50 [µM],Molecule
1,> 100,"Cc1cc(S(=O)(=O)N[C@@H]2CCCN(C(=O)N3CCCC3)C2)c(C)cc1Cl [Example 153, (R)-4-chloro-2,5-dimethyl-N-(1-(pyrrolidine-1-carbonyl)piperidin-3-yl)benzenesulfonamide]"
2,55,"Cc1cc(S(=O)(=O)Nc2ccc3c(c2)CC(=O)N3)c(C)cc1Cl [Example 185, 4-chloro-2,5-dimethyl-N-(2-oxoindolin-5-yl)benzenesulfonamide]"

# Further lines, the molecule ahead of its results:
row,Molecule,AC50 [µM]
1,"Cc1cc(S(=O)(=O)N[C@@H]2CCCN(C(=O)c3ccccc3)C2)c(C)cc1Cl [Example 150, (R)-N-(1-benzoylpiperidin-3-yl)-4-chloro-2,5-dimethylbenzenesulfonamide]",> 100
2,"O=S(=O)(Nc1csc(-c2ccccc2)n1)c1cccc(C(F)(F)F)c1 [Example 151, N-(2-phenylthiazol-4-yl)-3-(trifluoromethyl)benzenesulfonamide]",> 100
3,"O=S(=O)(Nc1csc(-c2ccccc2)n1)c1ccc2c(c1)CCO2 [Example 152, N-(2-phenylthiazol-4-yl)-2,3-dihydrobenzofuran-5-sulfonamide]",> 100
4,"(R)-2,5-dimethyl-N-(3-(3-methylmorpholine-4-carbonyl)phenyl)benzenesulfonamide [Example 1]",44
